These results are taken from article PMC11530130, “Peripherally restricted PICK1 inhibitor mPD5 ameliorates pain behaviors in murine inflammatory and neuropathic pain models” (JCI Insight, 2024).

This test deals with PICK1 (Rattus norvegicus, UniProt Q9EP80). Kind of test: Fluorescence polarization competition binding. Set-up: Full length rat PICK1 (pET41) was, as described earlier (1), expressed in BL21-DE3-pLysS; made in house; host or cells: E. coli BL21-DE3-pLysS. On the procedure:
SUPPORTING INFORMATION: Method Section.
Sex as a biological variable.
All peptides were ordered from WuXI AppTec (Shanghai, China) or TAG-Copenhagen […]
Protein expression and purification.
Full length rat PICK1 (pET41) was, as described earlier (1), expressed in BL21-DE3-pLysS and grown at 37 °C, induced at OD600= 0.6 with 1 mM IPTG, and grown for 16 hours at 20 °C.
Cultures were harvested and re-suspended in 50 mM Tris, 125 mM NaCl, 2 mM DTT (Sigma), 1% Triton X-100 (Sigma), 20 µg/mL DNAse 1 and half a tablet of cOmplete protease inhibitor cocktail (Roche) pr. 1 L culture. The resuspended pellets were frozen at -80 °C for later purification. The lysate was cleared by centrifugation (36,000 x g for 30 min at 4 °C), and the supernatant was incubated with Glutathione-Sepharose 4B beads (GE Healthcare) for two hours at 4 °C under gentle rotation and then centrifuged at 4000 x g for 5 min. The supernatant was removed, and the beads were washed twice in 35 mL 50 mM Tris, 125 mM NaCl, 2 mM DTT, and 0.01% Triton-X100. The beads were transferred to PD-10 Bio-Spin® Chromatography columns (Bio-Rad) and washed with an additional 3 column volumes. Each column was sealed and 0.075 U/µL, Novagen® was added for cleavage O/N at 4 °C under gentle rotation. PICK1 was eluted on ice and concentration was measured on a NanoDrop 3000.
Fluorescence polarization binding.
The competition binding assay was carried out using a fixed concentration of PICK1 (0.5 µM) […]
binding surface 96 well plates (Sigma-Aldrich, Ref. no. 3686). The plates were incubated 20 min on ice and the fluorescence polarization was measured on an Omega POLARstar plate reader (BMG LABTECH) using excitation filter of 485 nm and long pass emission filter of 520 nm. The data was plotted and fitted to a competitive binding One Site fit using GraphPad […]
Superdex200 Increase 10/300.
For orientation: In fluorescence polarisation assays a small probe gives low polarisation when free and higher when bound to something large.

Chain of PICK1 (Q9EP80 whole entry): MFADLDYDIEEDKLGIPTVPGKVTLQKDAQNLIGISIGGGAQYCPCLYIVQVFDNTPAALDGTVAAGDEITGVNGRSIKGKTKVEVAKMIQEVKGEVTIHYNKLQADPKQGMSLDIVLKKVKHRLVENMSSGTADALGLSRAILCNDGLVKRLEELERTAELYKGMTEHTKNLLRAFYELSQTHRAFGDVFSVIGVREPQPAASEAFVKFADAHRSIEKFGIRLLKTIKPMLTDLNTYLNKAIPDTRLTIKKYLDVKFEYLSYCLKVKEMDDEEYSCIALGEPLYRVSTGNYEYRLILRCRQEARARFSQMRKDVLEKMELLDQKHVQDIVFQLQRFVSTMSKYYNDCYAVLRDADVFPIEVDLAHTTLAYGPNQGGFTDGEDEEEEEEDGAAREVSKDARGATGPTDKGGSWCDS

In the case of `CCCCCCCCCCCCCC(=O)N(CCOCCOCCC(=O)N[C@@H](Cc1c[nH]cn1)C(=O)N[C@@H](Cc1c[nH]c2ccccc12)C(=O)N[C@@H](CC(C)C)C(=O)N[C@@H](CCCCN)C(=O)N[C@H](C(=O)O)C(C)C)CCOCCOCCC(=O)N[C@@H](Cc1c[nH]cn1)C(=O)N[C@@H](Cc1c[nH]c2ccccc12)C(=O)N[C@@H](CC(C)C)C(=O)N[C@@H](CCCCN)C(=O)N[C@H](C(=O)O)C(C)C` [mPD5, myristoyl-NPEG4-(HWLKV)2], the inhibition constant (Ki) (commonly a measure of affinity in units of concentration, obtained from inhibition or displacement) is 3 nM. Further, under “from Ki,app”, the “affinity gain compared with D5 (HWLKV) alone” value was “approximately 1000 fold” and the “affinity gain compared with PD5” value is reported as 30 fold.
